# Assays:
# Assay type in all cases: cell-based
# [1] = system: Candida albicans ATCC 10231; test: In vitro antifungal MIC, Candida albicans ATCC 10231; conditions: ATCC10231; Candida albicans ATCC 10231; 35°-37° C., 48 hours; read-out: MIC
# Procedure: (§1) The in vitro antifungal activity of the compounds of the present invention against a variety of fungiwas determined as follow: Test medium was prepared by dissolving first 5 g of dextrose and then 6.7 g of Bacto Yeast Nitrogen Base® (commercially available from Difco Laboratories) in 100 mL of distilled water. The solution was filter-sterilized and diluted 1:10 with 0.01M pH 8.0 phosphate buffer solution, and the final pH of the medium adjusted to about pH 7.0 when necessary with either 0.1N hydrochloric acid solution of 0.1N sodium hydroxide solution. […] These concentrated stock solutions were diluted to a concentration of 200 μg/mL (twice the highest concentration desired for testing) with the test medium. Amphotericin B, similarly prepared, was used as a reference antifungal agent.
# (§2) The test organisms were then inoculated into test tubes containing approximately 3 to 10 mL of test medium and the test tubes incubated overnight at 37° C. A sample of each overnight culture was placed in a test tube and diluted using the test medium until a reading of 95% transmittance was obtained in a conventional UV/visible spectrophotometer set to 560 nm. The adjusted cultures were then diluted 1:50 with test medium. These diluted cultures served as the inocula for the assays which follow and were used within 15 minutes of preparation.
# (§3) Next, 2-fold serial dilutions of each test compound in test medium were prepared in a 96-well microtiter plate using calibrated microdiluters attached to an automatic (hand-held) diluter (available from Dynatech Laboratories).
# (§4) Using sterile calibrated droppers or a multi-point dispenser, the diluted inoculum suspension was added to each of the wells in the plate. When inoculation was complete, the microtiter tray was covered with a plastic plate sealer to minimize evaporation. After the plate had been sealed, a hole was made above each well with a sterile 26-gauge syringe needle in order to allow gas exchange. If plate sealers were not available, the microtiter trays were stacked in groups of five or less with an empty tray on top. The microtiter trays were then incubated in a humidified chamber at 35°-37° C. for 48 hours or until growth was visible in the growth control wells.
# (§5) The minimum inhibitory concentration (MIC) was defined as the lowest concentration of test compound yielding no growth, a slight haze or sparsely isolated colonies on the inoculum spot as compared to the growth control containing no test compound.
# [2] = system: Candida albicans 579A; test: In vitro antifungal MIC, Candida albicans 579A; conditions: Candida albicans 579A; 35°-37° C., 48 hours; read-out: MIC
# Procedure: as §1, §2, §3, §4, §5
# [3] = system: Candida albicans CCH 442; test: In vitro antifungal MIC, Candida albicans CCH 442; conditions: CCH442; Candida albicans CCH 442; 35°-37° C., 48 hours; read-out: MIC
# Procedure: as §1, §2, §3, §4, §5
# [4] = system: Candida albicans ATCC 38247; test: In vitro antifungal MIC, Candida albicans ATCC 38247; conditions: ATCC38247; Candida albicans ATCC 38247; 35°-37° C., 48 hours; read-out: MIC
# Procedure: as §1, §2, §3, §4, §5
# [5] = system: Candida albicans ATCC 62376; test: In vitro antifungal MIC, Candida albicans ATCC 62376; conditions: ATCC62376; Candida albicans ATCC 62376; 35°-37° C., 48 hours; read-out: MIC
# Procedure: as §1, §2, §3, §4, §5
# [6] = system: Candida tropicalis NRRL-Y-112; test: In vitro antifungal MIC, Candida tropicalis NRRL-Y-112; conditions: NRRLY112; Candida tropicalis NRRL-Y-112; 35°-37° C., 48 hours; read-out: MIC
# Procedure: as §1, §2, §3, §4, §5
# [7] = system: Candida kefyr ATCC 28838; test: In vitro antifungal MIC, Candida kefyr ATCC 28838; conditions: Kluyveromyces marxianus, ATCC28838; Candida kefyr ATCC 28838; 35°-37° C., 48 hours; read-out: MIC
# Procedure: as §1, §2, §3, §4, §5
# [8] = system: Torulopsis glabrata ATCC 15545; test: In vitro antifungal MIC, Torulopsis glabrata ATCC 15545; conditions: Nakaseomyces glabratus, ATCC15545; Torulopsis glabrata ATCC 15545; 35°-37° C., 48 hours; read-out: MIC
# Procedure: as §1, §2, §3, §4, §5
# [9] = system: Cryptococcus albidus ATCC 34140; test: In vitro antifungal MIC, Cryptococcus albidus ATCC 34140; conditions: Naganishia albida, ATCC34140; Cryptococcus albidus ATCC 34140; 35°-37° C., 48 hours; read-out: MIC
# Procedure: as §1, §2, §3, §4, §5
# [10] = system: Aspergillus niger ATCC 16404; test: In vitro antifungal MIC, Aspergillus niger ATCC 16404; conditions: ATCC16404; Aspergillus niger ATCC 16404; 35°-37° C., 48 hours; read-out: MIC
# Procedure: as §1, §2, §3, §4, §5
SMILES,MIC [1] [µg/mL],MIC [2] [µg/mL],MIC [3] [µg/mL],MIC [4] [µg/mL],MIC [5] [µg/mL],MIC [6] [µg/mL],MIC [7] [µg/mL],MIC [8] [µg/mL],MIC [9] [µg/mL],MIC [10] [µg/mL]
"CCCCCCCCCN1Sc2ccccc2[S+]1[O-] (centres unmarked) [Example 7, 2-n-nonyl-1,3,2-benzodithiazole-1-oxide]",1.56,0.78,1.56,1.56,1.56,1.56,0.78,1.56,6.25,0.78
"CCCCCCCCCCN1Sc2ccccc2[S+]1[O-] (centres unmarked) [Example 8, 2-n-decyl-1,3,2-benzodithiazole-1-oxide]",1.56,6.25,6.25,6.25,6.25,3.12,1.56,3.12,12.5,1.56
"CC(C)(C)N1Sc2ccccc2[S+]1[O-] (centres unmarked) [Example 14, 2-t-butyl-1,3,2-benzodithiazole-1-oxide]",1.56,1.56,1.56,6.25,0.78,3.12,0.2,1.56,3.12,0.78
CC(C)(C)CCN1Sc2ccccc2[S+]1[O-] (centres unmarked) [Example 15],1.56,3.12,1.56,25,1.56,3.12,0.78,1.56,12.5,1.56
"CC(C)(C)CC(C)(C)N1Sc2ccccc2[S+]1[O-] (centres unmarked) [Example 16, 2-(1,1,3,3-tetramethylbutyl)-1,3,2-benzodithiazole-1-oxide]",6.25,3.12,1.56,1.56,6.25,12.5,0.78,6.25,6.25,3.12
"CS(=O)(=O)OCCN1Sc2ccccc2[S+]1[O-] (centres unmarked) [Example 19, O-(2-(1,3,2-benzodithiazole-2-yl-1-oxide)ethyl)methanesulfonate]",50,50,100,100,100,25,1.56,6.25,12.5,12.5

# Results, then the compound that gave them:
MIC [1] [µg/mL],MIC [2] [µg/mL],MIC [3] [µg/mL],MIC [4] [µg/mL],MIC [5] [µg/mL],MIC [6] [µg/mL],MIC [7] [µg/mL],MIC [8] [µg/mL],MIC [9] [µg/mL],MIC [10] [µg/mL],SMILES
0.39,0.39,0.78,6.25,0.39,0.78,0.2,0.39,3.12,0.2,"C=CCN1Sc2ccccc2[S+]1[O-] (centres unmarked) [Example 10, 2-allyl-1,3,2-benzodithiazole-1-oxide]"
0.39,0.78,0.78,,0.39,1.56,0.78,0.39,1.56,1.56,"C#CCN1Sc2ccccc2[S+]1[O-] (centres unmarked) [Example 12, 2-propargyl-1,3,2-benzodithiazole-1-oxide]"
12.5,12.5,12.5,1.56,25,12.5,0.78,6.25,1.56,6.25,"[O-][S+]1c2ccccc2SN1CCO (centres unmarked) [Example 18, 2-(2-hydroxyethyl)-1,3,2-benzodithiazole-1-oxide]"
